According to ChEMBL document CHEMBL1130094, “Structure-activity relationships for a novel series of pyrido[2,3-d]pyrimidine tyrosine kinase inhibitors” (J Med Chem, 1997):

Columns and labels:
Insulin receptor = Insulin receptor (Homo sapiens, UniProt P06213); assay: Inhibition of insulin receptor (InsR) tyrosine kinase
[1] = The half life in rat plasma after intravenous administration; assay type: ADME, organism-based
[2] = target: T1, Fibroblast growth factor receptor (Homo sapiens, UniProt P22607+P11362+P22455+P21802); assay: Inhibition of Fibroblast growth factor receptor (FGFr) tyrosine kinase; assay type: protein assay
[3] = target: T2, Epidermal growth factor receptor (Homo sapiens, UniProt P00533); assay: Inhibition of Epidermal growth factor receptor (EGFr) tyrosine kinase
[4] = target: T3, Platelet-derived growth factor receptor (PDGFr) (Rattus norvegicus, UniProt P20786+Q05030); assay: Inhibition of platelet derived growth factor (PDGF) stimulated PDGF-receptor autophosphorylation in rat aortic vascular smooth muscle cells (RAVSMCs)
[5] = target: T3, Platelet-derived growth factor receptor (PDGFr); assay: Inhibition of Platelet-derived growth factor receptor (PDGFr) tyrosine kinase in rat aortic vascular smooth muscle cells (RAVSMCs).
[6] = target: Proto-oncogene tyrosine-protein kinase Src (Homo sapiens, UniProt P12931); assay: Inhibition of C-src tyrosine kinase
[7] = Inhibition of vascular smooth muscle cell (VSMC) proliferation at day 8; assay type: functional; conditions: Rattus norvegicus, 192 h
[8] = target: T2, Epidermal growth factor receptor; assay: Inhibition of epidermal growth factor receptor (EGFr) tyrosine kinase
[9] = target: T1, Fibroblast growth factor receptor; assay: Inhibition of fibroblast growth factor receptor (FGFr) tyrosine kinase; assay type: protein assay

T2 sequence (P00533 whole entry): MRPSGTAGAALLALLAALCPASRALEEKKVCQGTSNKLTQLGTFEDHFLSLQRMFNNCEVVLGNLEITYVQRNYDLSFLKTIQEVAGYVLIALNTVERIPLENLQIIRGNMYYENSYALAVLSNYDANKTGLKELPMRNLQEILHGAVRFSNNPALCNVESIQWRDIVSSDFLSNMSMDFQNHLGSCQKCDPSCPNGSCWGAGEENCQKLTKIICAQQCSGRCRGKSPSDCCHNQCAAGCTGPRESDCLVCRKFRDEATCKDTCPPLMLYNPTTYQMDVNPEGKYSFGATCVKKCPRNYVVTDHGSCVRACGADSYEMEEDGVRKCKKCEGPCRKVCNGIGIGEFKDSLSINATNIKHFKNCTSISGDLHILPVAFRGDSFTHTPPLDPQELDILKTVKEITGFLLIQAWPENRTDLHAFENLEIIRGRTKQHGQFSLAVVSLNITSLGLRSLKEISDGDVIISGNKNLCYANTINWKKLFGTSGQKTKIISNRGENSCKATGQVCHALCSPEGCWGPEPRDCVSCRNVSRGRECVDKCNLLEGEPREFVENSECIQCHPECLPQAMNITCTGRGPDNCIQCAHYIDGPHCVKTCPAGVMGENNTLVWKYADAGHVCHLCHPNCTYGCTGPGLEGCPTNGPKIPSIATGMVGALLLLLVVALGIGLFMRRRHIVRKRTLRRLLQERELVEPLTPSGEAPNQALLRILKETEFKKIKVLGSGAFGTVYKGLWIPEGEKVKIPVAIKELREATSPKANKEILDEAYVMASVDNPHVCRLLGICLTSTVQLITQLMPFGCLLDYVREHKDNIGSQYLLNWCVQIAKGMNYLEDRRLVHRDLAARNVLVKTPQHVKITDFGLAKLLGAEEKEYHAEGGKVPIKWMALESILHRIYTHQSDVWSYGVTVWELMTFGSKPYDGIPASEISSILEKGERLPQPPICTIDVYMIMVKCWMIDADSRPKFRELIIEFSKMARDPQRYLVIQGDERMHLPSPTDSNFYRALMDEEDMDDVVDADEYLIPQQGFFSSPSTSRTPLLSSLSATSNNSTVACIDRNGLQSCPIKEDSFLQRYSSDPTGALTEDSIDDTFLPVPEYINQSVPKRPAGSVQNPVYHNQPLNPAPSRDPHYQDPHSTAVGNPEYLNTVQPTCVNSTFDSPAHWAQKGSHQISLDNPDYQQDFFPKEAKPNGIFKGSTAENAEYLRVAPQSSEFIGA
Sequence of Insulin receptor (P06213 28-758 limits assumed): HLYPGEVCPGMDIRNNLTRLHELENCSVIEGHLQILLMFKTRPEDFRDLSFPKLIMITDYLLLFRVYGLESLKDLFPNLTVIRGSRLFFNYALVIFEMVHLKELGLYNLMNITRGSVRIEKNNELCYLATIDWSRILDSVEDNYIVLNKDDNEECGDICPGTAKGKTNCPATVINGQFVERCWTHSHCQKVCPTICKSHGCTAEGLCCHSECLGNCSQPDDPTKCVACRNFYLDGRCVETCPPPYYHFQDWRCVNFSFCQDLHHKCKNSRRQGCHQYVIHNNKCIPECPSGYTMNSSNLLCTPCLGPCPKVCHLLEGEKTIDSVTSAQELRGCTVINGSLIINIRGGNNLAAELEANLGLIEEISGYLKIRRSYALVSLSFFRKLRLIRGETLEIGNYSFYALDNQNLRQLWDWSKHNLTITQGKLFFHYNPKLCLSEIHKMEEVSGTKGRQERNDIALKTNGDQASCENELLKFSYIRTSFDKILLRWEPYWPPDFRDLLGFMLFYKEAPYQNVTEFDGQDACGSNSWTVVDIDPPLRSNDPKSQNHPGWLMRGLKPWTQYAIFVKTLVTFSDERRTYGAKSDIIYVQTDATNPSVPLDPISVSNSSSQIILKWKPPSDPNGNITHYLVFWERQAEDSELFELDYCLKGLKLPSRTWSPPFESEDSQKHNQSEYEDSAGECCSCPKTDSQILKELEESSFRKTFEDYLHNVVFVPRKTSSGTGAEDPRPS
Sequence of Insulin receptor (P06213 763-1382 limits assumed): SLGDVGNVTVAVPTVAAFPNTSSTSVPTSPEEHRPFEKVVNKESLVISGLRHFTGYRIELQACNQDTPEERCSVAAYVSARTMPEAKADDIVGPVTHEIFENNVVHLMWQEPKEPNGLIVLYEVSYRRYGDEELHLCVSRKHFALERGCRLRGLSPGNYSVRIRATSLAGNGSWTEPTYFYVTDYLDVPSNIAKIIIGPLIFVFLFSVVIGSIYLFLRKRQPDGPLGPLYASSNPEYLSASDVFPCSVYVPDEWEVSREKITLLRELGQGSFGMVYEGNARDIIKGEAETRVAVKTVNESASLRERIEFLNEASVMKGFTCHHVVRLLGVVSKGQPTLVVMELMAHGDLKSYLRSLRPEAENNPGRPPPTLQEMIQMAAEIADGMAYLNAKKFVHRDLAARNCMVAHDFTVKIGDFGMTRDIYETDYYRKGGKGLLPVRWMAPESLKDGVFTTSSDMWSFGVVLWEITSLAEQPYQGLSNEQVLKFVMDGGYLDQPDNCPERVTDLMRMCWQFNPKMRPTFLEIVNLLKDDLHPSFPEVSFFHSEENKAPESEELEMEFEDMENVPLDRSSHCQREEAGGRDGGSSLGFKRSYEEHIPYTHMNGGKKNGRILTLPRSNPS
Sequence of Proto-oncogene tyrosine-protein kinase Src (P12931 2-536 limits assumed): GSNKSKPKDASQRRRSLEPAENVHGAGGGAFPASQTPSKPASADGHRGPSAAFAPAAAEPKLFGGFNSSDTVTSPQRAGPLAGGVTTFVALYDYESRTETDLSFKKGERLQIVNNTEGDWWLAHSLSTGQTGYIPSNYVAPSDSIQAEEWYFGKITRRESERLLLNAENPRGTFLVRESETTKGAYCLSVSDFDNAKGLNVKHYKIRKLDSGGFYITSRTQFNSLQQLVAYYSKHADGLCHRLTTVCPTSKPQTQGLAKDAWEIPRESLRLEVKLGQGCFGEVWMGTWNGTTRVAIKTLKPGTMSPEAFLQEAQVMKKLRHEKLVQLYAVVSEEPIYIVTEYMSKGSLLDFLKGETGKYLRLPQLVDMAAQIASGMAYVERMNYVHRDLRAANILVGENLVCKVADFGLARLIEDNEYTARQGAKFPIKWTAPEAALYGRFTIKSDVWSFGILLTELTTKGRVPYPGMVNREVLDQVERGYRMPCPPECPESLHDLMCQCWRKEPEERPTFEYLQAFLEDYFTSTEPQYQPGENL

IC50 (Insulin receptor) [µM] | half-life [1] [h] | IC50 [2] [µM] | IC50 [3] [µM] | IC50 [4] [µM] | IC50 [5] [µM] | IC50 [6] [µM] | IC50 [8] [µM] | IC50 [9] [µM] | Structure (SMILES) | IC50 [7] [µM]
> 50 | 2.69 | – | – | – | – | – | – | – | CN1CCN(CCCNc2ncc3cc(-c4c(Cl)cccc4Cl)c(NC(=O)NC(C)(C)C)nc3n2)CC1 | –
– | – | 0.06 | – | – | – | – | – | – | COc1cc(OC)cc(-c2cc3cnc(N)nc3nc2NC(=O)NC(C)(C)C)c1 | –
> 50 | – | 0.13 | 1.36 | 3.73 | 1.3 | – | – | – | CCNC(=O)Nc1nc2nc(N)ncc2cc1-c1c(Cl)cccc1Cl | –
> 50 | – | 0.4 | 0.61 | – | – | – | – | – | Cc1cccc(C)c1-c1cc2cnc(N)nc2nc1NC(=O)NC(C)(C)C | –
– | – | – | – | 0.25 | 0.19 | – | – | – | CCNC(=O)Nc1nc2nc(NCCCCN(CC)CC)ncc2cc1-c1c(Cl)cccc1Cl | –
> 50 | – | – | – | > 50 | > 50 | > 50 | – | – | Cc1cc(C)c(C)c(-c2cc3cnc(N)nc3nc2NC(=O)NC(C)(C)C)c1C | –
> 50 | – | 0.082 | 6.2 | 1.8 | 0.66 | – | – | – | CCN(CC)CCCNc1ncc2cc(-c3c(Cl)cccc3Cl)c(NC(=O)NC(C)(C)C)nc2n1 | –
> 50 | – | 0.13 | – | 0.63 | 1.11 | 0.22 | – | – | CC(C)(C)NC(=O)Nc1nc2nc(N)ncc2cc1-c1c(Cl)cccc1Cl | –
> 50 | – | 0.14 | 7 | 4.3 | > 50 | 2.2 | – | – | Cc1cc(C)c(C)c(-c2cc3cnc(NCCCN4CCN(C)CC4)nc3nc2NC(=O)NC(C)(C)C)c1C | –
> 50 | – | – | – | 0.45 | 0.31 | 0.044 | – | – | CCN(CC)CCCCNc1ncc2cc(-c3c(Cl)cccc3Cl)c(NC(=O)NC(C)(C)C)nc2n1 | 0.3
> 50 | – | – | – | – | 4.67 | > 50 | 5.53 | 3.71 | CC(C)(C)NC(=O)Nc1nc2nc(N)ncc2cc1-c1ccccc1 | –
